Literature values in US7473787B2, “Bicyclic [3.1.0] derivatives as glycine transporter inhibitors” (Pfizer Inc, priority 2003, dated 2009).

Test system: NMDA receptor
Conditions: effect blocked by a specific NMDA-site antagonist and a glycine-site antagonist

## CN(CCC(Oc1ccc(-c2ccccc2)cc1)c1ccc(F)cc1)CC(=O)O (stereo not shown) [NFPS]
  effect on postsynaptic current driven by the NMDA receptor: increased the postsynaptic current
